{
  "source": "paper PMC3531872",
  "about": "(Chemical research in toxicology, 2011)",
  "key": {"[1]": {"system": "S. typhimurium tester strain TA98", "conditions": "cited from earlier work"}, "[2]": {"system": "S. typhimurium strain YG1024", "conditions": "cited from earlier work"}, "[3]": {"target": "T1, Recombinant human P450 1B1 (Homo sapiens, UniProt Q16678)", "T1 sequence (Q16678 1-543)": "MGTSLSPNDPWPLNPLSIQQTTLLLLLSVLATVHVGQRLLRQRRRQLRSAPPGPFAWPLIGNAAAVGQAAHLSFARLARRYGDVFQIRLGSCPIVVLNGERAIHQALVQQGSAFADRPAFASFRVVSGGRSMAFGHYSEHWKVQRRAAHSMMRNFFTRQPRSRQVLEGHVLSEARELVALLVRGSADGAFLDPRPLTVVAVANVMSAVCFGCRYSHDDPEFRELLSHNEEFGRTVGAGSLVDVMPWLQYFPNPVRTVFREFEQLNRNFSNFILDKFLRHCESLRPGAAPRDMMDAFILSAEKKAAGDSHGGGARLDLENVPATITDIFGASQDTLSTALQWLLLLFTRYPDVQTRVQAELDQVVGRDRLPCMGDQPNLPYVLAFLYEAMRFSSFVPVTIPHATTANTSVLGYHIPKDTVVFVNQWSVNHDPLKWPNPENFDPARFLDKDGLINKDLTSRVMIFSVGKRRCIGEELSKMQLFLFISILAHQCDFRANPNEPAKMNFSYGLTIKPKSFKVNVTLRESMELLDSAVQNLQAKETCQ", "test": "N- and C-oxidation by recombinant human P450 1B1", "type": "in vitro ADME"}, "[4]": {"target": "T2, Recombinant human P450 1A1 (Homo sapiens, UniProt P04798)", "T2 sequence (P04798 1-512)": "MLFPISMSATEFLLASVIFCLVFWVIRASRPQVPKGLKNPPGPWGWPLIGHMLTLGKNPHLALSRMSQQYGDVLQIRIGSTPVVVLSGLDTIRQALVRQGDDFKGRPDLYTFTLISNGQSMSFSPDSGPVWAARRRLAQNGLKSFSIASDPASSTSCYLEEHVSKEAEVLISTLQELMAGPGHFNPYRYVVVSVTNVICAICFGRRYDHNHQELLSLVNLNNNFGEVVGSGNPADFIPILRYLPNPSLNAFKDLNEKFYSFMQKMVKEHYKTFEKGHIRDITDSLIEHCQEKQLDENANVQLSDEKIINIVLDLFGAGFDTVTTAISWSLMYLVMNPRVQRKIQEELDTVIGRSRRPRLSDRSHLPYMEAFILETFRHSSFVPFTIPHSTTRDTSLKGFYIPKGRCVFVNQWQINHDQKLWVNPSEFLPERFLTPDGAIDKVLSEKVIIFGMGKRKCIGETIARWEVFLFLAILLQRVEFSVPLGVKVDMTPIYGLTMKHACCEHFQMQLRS", "test": "N- and C-oxidation by recombinant human P450 1A1", "type": "in vitro ADME"}, "[5]": {"test": "N- and C-oxidation with mouse liver microsomes", "type": "in vitro ADME, female C57BL/6J mice", "conditions": "female, C57BL/6J, 200 μM, pH 7.6"}, "[6]": {"test": "N- and C-oxidation with human liver microsomes", "type": "in vitro ADME", "conditions": "200 μM, pH 7.6"}, "[7]": {"test": "Plasma clearance of 14C radioactivity in mice", "type": "in vivo, female C57BL/6J mice"}, "[8]": {"system": "mouse liver DNA", "conditions": "in vivo"}, "[9]": {"system": "liver, pancreas and colorectal DNA", "conditions": "female, C57BL/6J, mouse, in vivo"}, "[10]": {"system": "liver, pancreas and colorectal DNA", "test": "In vivo DNA binding"}, "[11]": {"system": "rat liver DNA", "conditions": "24 h following oral dosing with MeIQx (10 mg/kg); cited from earlier work"}, "[12]": {"system": "liver DNA", "conditions": "male C57BL/6 mice; 24 h post-treatment; 5 mg/kg; cited from earlier work"}},
  "note": "Where two headings read alike, the source gives them in different places.",
  "data": [
    {"smiles": "Cc1cnc2cc3nc(N)n(C)c3cc2n1", "note": "[MeIgQx, 2-Amino-1,7-dimethylimidazo[4,5-g]quinoxaline]", "values": [
      {"measurement": "potency in the Ames reversion assay, fold lower than MeIQx", "setting": "[1]", "result": "about 4,000 fold"},
      {"measurement": "genotoxic potency in YG1024 relative to TA98, fold greater", "setting": "[2]", "result": 16, "unit": "fold"},
      {"measurement": "mutagenic potency, fold weaker than PhIP", "setting": "[2]", "result": "about 10 fold"},
      {"measurement": "Estimated C-oxidation rate, HO-MeIg Qx formation", "setting": "[3]; human, 200 μM, pH 7.6", "result": "2.5 ± 0.3", "unit": "nmol/min/100 pmol P450"},
      {"measurement": "Estimated N-oxidation rate, HONH-MeIg Qx formation", "setting": "[3]; human, 200 μM, pH 7.6", "result": "3.9 ± 0.6", "unit": "nmol/min/100 pmol P450"},
      {"measurement": "Estimated C-oxidation rate, HO-MeIg Qx formation", "setting": "[4]; human, 200 μM, pH 7.6", "result": "6.9 ± 2.4", "unit": "nmol/min/100 pmol P450"},
      {"measurement": "Estimated N-oxidation rate, HONH-MeIg Qx formation", "setting": "[4]; human, 200 μM, pH 7.6", "result": "14.1 ± 4.9", "unit": "nmol/min/100 pmol P450"},
      {"measurement": "rate of MeIgQx N-oxidation by P450 1A1 relative to P450 1A2", "setting": "[4]; human, recombinant enzyme, 200 μM, pH 7.6", "result": "~ 3 fold"},
      {"measurement": "Estimated C-oxidation rate, HO-MeIg Qx formation", "setting": "[5]", "result": "0.5 ± 0.2 nmol/min/mg microsomal protein"},
      {"measurement": "Estimated N-oxidation rate, HONH-MeIg Qx formation", "setting": "[5]", "result": "0.3 ± 0.1 nmol/min/mg microsomal protein"},
      {"measurement": "Estimated C-oxidation rate, HO-MeIg Qx formation", "setting": "[6]", "result": "0.1 ± 0.01 nmol/min/mg microsomal protein"},
      {"measurement": "Estimated N-oxidation rate, HONH-MeIg Qx formation", "setting": "[6]", "result": "0.4 ± 0.02 nmol/min/mg microsomal protein"},
      {"measurement": "rate of N-oxidation", "setting": "[6]", "result": 0.4, "unit": "nmol/min/mg protein"},
      {"measurement": "radioactivity cleared from plasma within 48 h", "setting": "[7]; female, C57BL/6J, mouse, in vivo, 48 h", "result": "greater than 95%"},
      {"measurement": "potential dA adduct of MeIgQx ([M+H]+ at m/z 463.2)", "setting": "[8]", "result": "no peaks were detected above background level"},
      {"measurement": "putative dG-C8-MeIgQx adduct, MS^2 or MS^3 scan stages", "setting": "[8]", "result": "not detected"},
      {"measurement": "CBI in liver at T4 and 24 h", "setting": "[9]", "result": "7 - 28"},
      {"measurement": "time of highest level of 14C isotope in colorectal DNA", "setting": "[9]", "result": 24, "unit": "h"},
      {"measurement": "Covalent Binding Index, colon", "setting": "[9]; 4 h", "result": "12.0 ± 6.5 (μ mol/mol dNp)/(mmol carcinogen/kg bw)"},
      {"measurement": "Covalent Binding Index, liver", "setting": "[9]; 4 h", "result": "21.7 ± 8.6 (μ mol/mol dNp)/(mmol carcinogen/kg bw)"},
      {"measurement": "Covalent Binding Index, pancreas", "setting": "[9]; 4 h", "result": "2.4 ± 2.4 (μ mol/mol dNp)/(mmol carcinogen/kg bw)"},
      {"measurement": "14C-isotope associated with liver DNA at 24 h, relative to 4 h", "setting": "[9]; 24 h", "result": 33, "unit": "%"},
      {"measurement": "14C-isotope associated with pancreas DNA at 24 h, relative to 4 h", "setting": "[9]; 24 h", "result": 44, "unit": "%"},
      {"measurement": "Covalent Binding Index, colon", "setting": "[9]; 24 h", "result": "138 ±114 (μ mol/mol dNp)/(mmol carcinogen/kg bw)"},
      {"measurement": "Covalent Binding Index, liver", "setting": "[9]; 24 h", "result": "7.0 ± 3.2 (μ mol/mol dNp)/(mmol carcinogen/kg bw)"},
      {"measurement": "Covalent Binding Index, pancreas", "setting": "[9]; 24 h", "result": "1.1 ± 0.6 (μ mol/mol dNp)/(mmol carcinogen/kg bw)"},
      {"measurement": "14C-isotope associated with liver DNA at 48 h, relative to 4 h", "setting": "[9]; 48 h", "result": 27, "unit": "%"},
      {"measurement": "14C-isotope associated with pancreas DNA at 48 h, relative to 4 h", "setting": "[9]; 48 h", "result": 17, "unit": "%"},
      {"measurement": "Covalent Binding Index, colon", "setting": "[9]; 48 h", "result": "28.7 ± 18.5 (μ mol/mol dNp)/(mmol carcinogen/kg bw)"},
      {"measurement": "Covalent Binding Index, liver", "setting": "[9]; 48 h", "result": "5.8 ± 0.6 (μ mol/mol dNp)/(mmol carcinogen/kg bw)"},
      {"measurement": "Covalent Binding Index, pancreas", "setting": "[9]; 48 h", "result": "0.2 ± 0.2 (μ mol/mol dNp)/(mmol carcinogen/kg bw)"}
    ]},
    {"smiles": "Cc1cnc2ccc3c(nc(N)n3C)c2n1", "note": "[MeIQx, 2-Amino-3,8-dimethylimidazo[4,5-f]quinoxaline]", "values": [
      {"measurement": "N-oxidation by P450 1B1 (in words)", "setting": "[3]; recombinant human P450 1B1", "result": "low to not detectable"},
      {"measurement": "N-oxidation by P450 1A1 (in words)", "setting": "[4]; recombinant human P450 1A1", "result": "low to not detectable"},
      {"measurement": "Covalent Binding Index, colon", "setting": "[10]; Time 4 h", "result": "113 ±119 (μ mol/mol dNp)/(mmol carcinogen/kg bw)"},
      {"measurement": "Covalent Binding Index, colon", "setting": "[10]; Time 24 h", "result": "10.4 ± 11.9 (μ mol/mol dNp)/(mmol carcinogen/kg bw)"},
      {"measurement": "Covalent Binding Index, colon", "setting": "[10]; Time 48 h", "result": "2.1 ± 0.9 (μ mol/mol dNp)/(mmol carcinogen/kg bw)"},
      {"measurement": "Covalent Binding Index, liver", "setting": "[10]; Time 4 h", "result": "27.7 ± 8.3 (μ mol/mol dNp)/(mmol carcinogen/kg bw)"},
      {"measurement": "Covalent Binding Index, liver", "setting": "[10]; Time 24 h", "result": "11.5 ± 7.7 (μ mol/mol dNp)/(mmol carcinogen/kg bw)"},
      {"measurement": "Covalent Binding Index, liver", "setting": "[10]; Time 48 h", "result": "20.5 ± 8.4 (μ mol/mol dNp)/(mmol carcinogen/kg bw)"},
      {"measurement": "Covalent Binding Index, pancreas", "setting": "[10]; Time 4 h", "result": "0.8 ± 0.2 (μ mol/mol dNp)/(mmol carcinogen/kg bw)"},
      {"measurement": "Covalent Binding Index, pancreas", "setting": "[10]; Time 24 h", "result": "0.2 ± 0.1 (μ mol/mol dNp)/(mmol carcinogen/kg bw)"},
      {"measurement": "Covalent Binding Index, pancreas", "setting": "[10]; Time 48 h", "result": "0.1 ± 0.1 (μ mol/mol dNp)/(mmol carcinogen/kg bw)"},
      {"measurement": "time of highest level of 14C isotope in colorectal DNA", "setting": "[10]; colorectal DNA, time points 4, 24, 48 h", "result": 4, "unit": "h"},
      {"measurement": "14C-isotope associated with liver DNA at 48 h, relative to 4 h", "setting": "[10]; liver DNA, T 48 h vs 4 h", "result": "up to 74%"},
      {"measurement": "total [14C]-MeIQx-DNA adduct formation, based upon AMS measurements", "setting": "[10]; liver, 24 h post treatment, 2.13 mg/kg by gavage", "result": "11.4 ± 7.6 adducts per 10^8 nucleotides"},
      {"measurement": "CBI in liver at T4 and 24 h", "setting": "[10]; liver, T4 and 24 h, range over both HAAs", "result": "7 - 28"},
      {"measurement": "14C-isotope associated with pancreas DNA at 48 h, relative to 4 h", "setting": "[10]; pancreas DNA, T 48 h vs 4 h", "result": "≤ 25", "unit": "%"},
      {"measurement": "radioactivity cleared from plasma within 48 h", "setting": "[7]; gavage, 14C-MeIgQx 9.68 mg/kg or 14C-MeIQx 2.13 mg/kg", "result": "greater than 95%"},
      {"measurement": "time of peak plasma levels in radioactivity", "setting": "[7]; gavage, 14C-MeIgQx 9.68 mg/kg or 14C-MeIQx 2.13 mg/kg, time points 4, 24, 48 h", "result": 4, "unit": "h"},
      {"measurement": "dA-N^6-MeIQx adduct level relative to dG-C8-MeIQx", "setting": "[11]", "result": "~ 5%"},
      {"measurement": "dG-N^2-MeIQx adduct level relative to dG-C8-MeIQx", "setting": "[11]", "result": "30 - 50%"},
      {"measurement": "[14C]-MeIQx bound to liver DNA", "setting": "[12]", "result": "about 20 adducts per 10^8 nucleotides"}
    ]},
    {"smiles": "Cn1c(N)nc2ncc(-c3ccccc3)cc21", "note": "[PhIP, 2-amino-1-methyl-6-phenylimidazo[4,5-b]pyridine, reference compound]", "values": [
      {"measurement": "mutagenic potency", "setting": "[2]; S. typhimurium YG1024", "result": "3,015 rev/μg"}
    ]}
  ]
}
